Earlier results as cited in article PMC8241576 (Biophysical Journal, 2021).

Settings: in water at 25°C

In the case of `Cl.N=c1ccc2c(-c3ccccc3C(=O)O)c3ccc(N)cc3oc-2c1` [Rh110, Rhodamine 110], the diffusion coefficient is listed as 4.4 × 10^−6 cm^2 s^−1 and the “hydrodynamic radius of free dye” value is listed as ~0.56 nm.
